Patent publication US12551573B2, “Compositions and methods for the targeting of PCSK9” (Scribe Therapeutics Inc., priority 2022, dated 2026)

Test system: human PCSK9 locus
Test: Secreted PCSK9 by ELISA (normalized to total cell count) in Huh7 cells transfected with mRNA and gRNA
Format: cell-based
Details: paired with LTRP5-ADD-ZIM3 mRNA; for Secreted PCSK9 / Percent reduction in PCSK9 secretion / Average percent reduction in PCSK9 secretion: Huh7 cells, 6 days post-transfection; for Secreted PCSK9: normalized to total cell count; for Percent reduction in PCSK9 secretion: relative to non-targeting gRNA control; for Average percent reduction in PCSK9 secretion: averaged from the two doses
Protocol: To assess PCSK9 secretion, seeded Huh7 cells were transfected with mRNA encoding a catalytically-active CasX 676, dXR1, or LTRP5-ADD-ZIM3 and a gRNA with scaffold 316 and spacer targeting either the B2M or PCSK9 locus. Media supernatant was harvested at 6, 18, 36, and 87 days post-transfection to assess level of PCSK9 secretion by ELISA. Levels of PCSK9 secretion were normalized to total cell count. As an additional control, PCSK9 secretion was also measured in the media supernatant harvested from wells containing untreated, naïve cells.
The following three human hepatocyte cancer cell lines were used in this experiment: HepG2 cells, Hep3B cells, and Huh7 cells. ˜15,000 cells of each cell line were seeded per well; the next day, seeded cells were transfected with mRNA encoding a catalytically-active CasX 676, dXR1, or LTRP5-ADD-ZIM3 and a gRNA with scaffold 316 and spacer targeting either the B2M or PCSK9 locus (see Table 23 for specific spacers and sequences). Media supernatant was harvested at 4 days post-transfection to assess level of PCSK9 secretion by ELISA, and levels of PCSK9 secretion were normalized to total cell count and illustrated in FIGS. 11A-11C. Culturing of treated Huh7 cells continued, and media supernatant was harvested at 14 and 27 days post-transfection for measuring PCSK9 secretion by ELISA. As an additional experimental control, PCSK9 secretion was also measured in the media supernatant harvested from wells containing untreated, naïve cells.
To assess PCSK9 secretion, seeded Huh7 cells were co-transfected with mRNA encoding for LTRP5-ADD-ZIM3 and a gRNA with scaffold 316 and spacer targeting the PCSK9 locus using Lipofectamine™ 3000. Two doses of total RNA input at a 2:1 mass ratio of mRNA to gRNA were used for screening: 50 ng mRNA: 25 ng gRNA and 25 ng mRNA: 12.5 ng gRNA. Media supernatant was harvested at 6 days post-transfection to assess level of PCSK9 secretion by ELISA (Table 74). Levels of PCSK9 secretion were normalized to total cell count. As an additional control, PCSK9 secretion was also measured in the media supernatant harvested from cells transfected with mRNA encoding for mScarlet.

Row | Substance | Secreted PCSK9 (25 ng mRNA:12.5 ng gRNA) | Percent reduction in PCSK9 secretion (25 ng mRNA:12.5 ng gRNA) | Secreted PCSK9 (50 ng mRNA:25 ng gRNA) | Percent reduction in PCSK9 secretion (50 ng mRNA:25 ng gRNA) | Average percent reduction in PCSK9 secretion | secreted PCSK9: sustained repression through day 36 (Huh7, scaffold 316, compared to spacer 6.1 paired with CasX 676)
1 | TG-06-344 (guide CAGUUUCUGCCUCGCCGCGG; listed as RNA, chemistry not given here) | 76.43 ng/mL | 7.28% | 82.29 ng/mL | 0.01% | 3.64% | 
2 | TG-06-345 (guide GCCUCGCCGCGGCACAGGUG; listed as RNA, chemistry not given here) | 85.68 ng/mL | 20.26% | 81.22 ng/mL | 1.28% | 9.49% | 
3 | TG-06-346 (guide CCCACCUGUGCCGCGGCGAG; listed as RNA, chemistry not given here) | 81.63 ng/mL | 14.58% | 77.02 ng/mL | 6.39% | 4.09% | 
4 | TG-06-347 (guide CUCCUUCACCCACCUGUGCC; listed as RNA, chemistry not given here) | 51.83 ng/mL | 27.24% | 26.55 ng/mL | 67.73% | 47.49% | 
5 | TG-06-348 (guide AGGCAUUCACUCCUUCACCC; listed as RNA, chemistry not given here) | 35.55 ng/mL | 50.1% | 23.14 ng/mL | 71.88% | 60.99% | 
6 | TG-06-349 (guide CUGUGCCUGGUGCAGUUCCC; listed as RNA, chemistry not given here) | 87.55 ng/mL | 22.89% | 91.34 ng/mL | 11.02% | 16.95% | 
7 | TG-06-350 (guide GUGUCAUAAAGAAAUUGCCU; listed as RNA, chemistry not given here) | 67.87 ng/mL | 4.74% | 71.25 ng/mL | 13.4% | 9.07% | 
8 | TG-06-351 (guide UUAUGACACAGAACUCAUGC; listed as RNA, chemistry not given here) | 62.93 ng/mL | 11.67% | 56.34 ng/mL | 31.52% | 21.6% | 
9 | TG-06-352: PCSK9-targeting TTC spacer positioned beyond the 1100 bp TSS-proximal window (Table 17) (guide UCCCUCACCAAUUACCCCUC; listed as RNA, chemistry not given here) |  |  |  |  |  | effective repression through day 36
10 | TG-06-1046 (guide UCUCUUACAUGGGGGGAAAC; listed as RNA, chemistry not given here) | 76.27 ng/mL | 7.05% | 78.9 ng/mL | 4.1% | 1.48% | 
11 | UCCCAGUAUCGACAGCCCUU (listed as RNA, chemistry not given here) [spacer 6.123, Promoter] | 51.32 ng/mL | 27.97% | 30.49 ng/mL | 62.95% | 45.46% | 
12 | UCCCUCUGCGCGUAAUCUGA (listed as RNA, chemistry not given here) [spacer 6.150, Promoter] | 39.59 ng/mL | 44.42% | 18.33 ng/mL | 77.73% | 61.08% | 
13 | UCCUCCUGCCUGGUACACAA (listed as RNA, chemistry not given here) [spacer 6.127, Promoter] | 49.1 ng/mL | 31.08% | 22.57 ng/mL | 72.56% | 51.82% | 
14 | UCGGCCUCCGGGUCUCCCAA (listed as RNA, chemistry not given here) [spacer 6.170, Intron 1] | 72.96 ng/mL | 2.41% | 64.19 ng/mL | 21.98% | 9.79% | 
15 | UGAACAUGGUGUGUAAAAGG (listed as RNA, chemistry not given here) [spacer 6.131, Promoter] | 57.89 ng/mL | 18.74% | 28.4 ng/mL | 65.48% | 42.11% | 
16 | UGGGUCCACCUUGUCUCCUG (listed as RNA, chemistry not given here) [spacer 6.145, Promoter] | 18.54 ng/mL | 73.98% | 15.8 ng/mL | 80.8% | 77.39% | 
17 | UUCCACUGGCCUUAACCUGG (listed as RNA, chemistry not given here) [spacer 6.142, Promoter] | 27.27 ng/mL | 61.73% | 30.87 ng/mL | 62.48% | 62.1% | 
18 | UUUUACACACCAUGUUCAAG (listed as RNA, chemistry not given here) [spacer 6.129, Promoter] | 90.82 ng/mL | 27.47% | 59.93 ng/mL | 27.16% | 0.16% | 
